Measurements taken from patent publication US12077503B2, “Substituted cyclic amides and their use as herbicides” (FMC CORPORATION, priority 2015, dated 2024).

What was measured:
Assay type in all cases: in vivo
[1] = tested on: Kochia (Kochia scoparia); test: Test A preemergence; details: Bassia scoparia, pre-emergence, 240 h, preemergence, read-out: Plant response rating, Kochia; for pest or weed control at 125 g/ha: 125 g ai/ha, visual rating after approx. 10 d, 0 to 100 scale where 0 is no effect and 100 is complete control; for pest or weed control at 500 g/ha: 500 g ai/ha, 0 to 100 scale, 0 = no effect, 100 = complete control
In short: (§1)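 Greenhouse, ~10 d after spray; visual injury vs untreated controls, 0 = no effect, 100 = complete control. Preemergence: directed soil spray over planted seeds. Postemergence: plants 2–10 cm, 1–2 leaf stage. Loam/sand blend. Compound in non-phytotoxic solvent with surfactant.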

[2] = tested on: ryegrass, Italian (Italian ryegrass, Lolium multiflorum); test: Test A preemergence; details: Lolium multiflorum, pre-emergence, 240 h, preemergence, read-out: Plant response rating, Ryegrass, Italian; for pest or weed control at 125 g/ha: 125 g ai/ha, visual rating after approx. 10 d, 0 to 100 scale where 0 is no effect and 100 is complete control; for pest or weed control at 500 g/ha: 500 g ai/ha, 0 to 100 scale, 0 = no effect, 100 = complete control
In short: as §1

[3] = tested on: giant foxtail (Setaria faberii); test: Test A preemergence; details: Setaria faberi, pre-emergence, 240 h, preemergence, read-out: Plant response rating, Foxtail, Giant; for pest or weed control at 125 g/ha: 125 g ai/ha, visual rating after approx. 10 d, 0 to 100 scale where 0 is no effect and 100 is complete control; for pest or weed control at 500 g/ha: 500 g ai/ha, 0 to 100 scale, 0 = no effect, 100 = complete control
In short: as §1

[4] = tested on: ragweed (common ragweed, Ambrosia elatior); test: Test A preemergence; details: Ambrosia artemisiifolia, pre-emergence, 240 h, preemergence, read-out: Plant response rating, Ragweed; for pest or weed control at 125 g/ha: 125 g ai/ha, visual rating after approx. 10 d, 0 to 100 scale where 0 is no effect and 100 is complete control; for pest or weed control at 500 g/ha: 500 g ai/ha, 0 to 100 scale, 0 = no effect, 100 = complete control
In short: as §1

[5] = tested on: pigweed (Amaranthus retroflexus); test: Test A preemergence; details: Amaranthus retroflexus, pre-emergence, 240 h, preemergence, read-out: Plant response rating, Pigweed; for pest or weed control at 125 g/ha: 125 g ai/ha, visual rating after approx. 10 d, 0 to 100 scale where 0 is no effect and 100 is complete control; for pest or weed control at 500 g/ha: 500 g ai/ha, 0 to 100 scale, 0 = no effect, 100 = complete control
[6] = tested on: barnyardgrass (Echinochloa crus-galli); test: Test A preemergence; details: Echinochloa crus-galli, pre-emergence, 240 h, preemergence, read-out: Plant response rating, Barnyardgrass; for pest or weed control at 125 g/ha: 125 g ai/ha, visual rating after approx. 10 d, 0 to 100 scale where 0 is no effect and 100 is complete control; for pest or weed control at 500 g/ha: 500 g ai/ha, 0 to 100 scale, 0 = no effect, 100 = complete control
In short: as §1

[7] = tested on: blackgrass (Alopecurus myosuroides); test: Test A postemergence; details: Alopecurus myosuroides, post-emergence, 240 h, 125 g ai/ha, postemergence; visual injury after approximately 10 d; 0 to 100 scale (0 no effect, 100 complete control); read-out: Plant response rating, Blackgrass
In short: as §1

[8] = tested on: Kochia (Kochia scoparia); test: Test A postemergence; details: Bassia scoparia, post-emergence, 240 h, 125 g ai/ha, postemergence; visual injury after approximately 10 d; 0 to 100 scale (0 no effect, 100 complete control); read-out: Plant response rating, Kochia
In short: as §1

[9] = tested on: ryegrass, Italian (Italian ryegrass, Lolium multiflorum); test: Test A postemergence; details: Lolium multiflorum, post-emergence, 240 h, 125 g ai/ha, postemergence; visual injury after approximately 10 d; 0 to 100 scale (0 no effect, 100 complete control); read-out: Plant response rating, Ryegrass, Italian
In short: as §1

[10] = tested on: ragweed (common ragweed, Ambrosia elatior); test: Test A postemergence; details: Ambrosia artemisiifolia, post-emergence, 240 h, 125 g ai/ha, postemergence; visual injury after approximately 10 d; 0 to 100 scale (0 no effect, 100 complete control); read-out: Plant response rating, Ragweed
In short: as §1

[11] = tested on: wheat (Triticum aestivum); test: Test A postemergence; details: Triticum aestivum, post-emergence, 240 h, 125 g ai/ha, postemergence; visual injury after approximately 10 d; 0 to 100 scale (0 no effect, 100 complete control); read-out: Plant response rating, Wheat
In short: as §1

[12] = tested on: rice (Oryra sativa); test: Test B flooded paddy test; details: Oryza sativa, Flood, 250 g ai/ha; scale of 0 to 100 where 0 is no effect and 100 is complete control; read-out: Rice plant response rating
In short: (§2)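 Flooding to 3 cm over soil accompanied treatment, which consisted of adding compound to the standing water around 2-leaf plants; depth was then maintained. Visual assessment versus controls followed at 13 to 15 d (scale 0–100, 0 meaning no effect).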

[13] = tested on: sedge, umbrella (small-flower umbrella sedge, Cyperus difformis); test: Test B flooded paddy test; details: Cyperus difformis, Flood, 250 g ai/ha; scale of 0 to 100 where 0 is no effect and 100 is complete control; read-out: Sedge, Umbrella plant response rating
In short: as §2

[14] = tested on: ducksalad (Heteranthera limosa); test: Test B flooded paddy test; details: Heteranthera limosa, Flood, 250 g ai/ha; scale of 0 to 100 where 0 is no effect and 100 is complete control; read-out: Ducksalad plant response rating
In short: as §2

[15] = tested on: barnyardgrass (Echinochloa crus-galli); test: Test B flooded paddy test; details: Echinochloa crus-galli, Flood, 250 g ai/ha; scale of 0 to 100 where 0 is no effect and 100 is complete control; read-out: Barnyardgrass plant response rating
In short: as §2

Structure (SMILES)	pest or weed control at 125 g/ha [1] [%]	pest or weed control at 500 g/ha [1] [%]	pest or weed control at 125 g/ha [2] [%]	pest or weed control at 500 g/ha [2] [%]	pest or weed control at 125 g/ha [3] [%]	pest or weed control at 500 g/ha [3] [%]	pest or weed control at 125 g/ha [4] [%]	pest or weed control at 500 g/ha [4] [%]	pest or weed control at 125 g/ha [5] [%]	pest or weed control at 500 g/ha [5] [%]	pest or weed control at 125 g/ha [6] [%]	pest or weed control at 500 g/ha [6] [%]	pest or weed control at 125 g/ha [7] [%]	pest or weed control at 125 g/ha [8] [%]	pest or weed control at 125 g/ha [9] [%]	pest or weed control at 125 g/ha [10] [%]	plant injury at 125 g/ha [11] [%]	pest or weed control at 250 g/ha [12] [%]	pest or weed control at 250 g/ha [13] [%]	pest or weed control at 250 g/ha [14] [%]	also measured
CN1C[C@H](c2ccc(C(F)(F)F)cc2)[C@@H](C(=O)Nc2ccccc2C2CC2)C1=O [Compound 747]	60	80	0	60	90	90	20	0	50	50	0	70	30	20	0	0	0	15	0	90	pest or weed control at 250 g/ha [15]: 0%
O=C1NC[C@H](c2cccc(C(F)(F)F)c2)[C@H]1C(=O)Nc1ccccc1C1CC1 [Compound 748]	0	0	0	0	40	90	0	0	0	0	0	30	0	0	0	0	0	25	0	75	pest or weed control at 250 g/ha [15]: 0%
O=C1NC[C@H](c2cscn2)[C@H]1C(=O)Nc1ccccc1F [Compound 752]	60	70	20	30	90	90	40	60	20	40	30	90	0	40	20	20	0	0	0	0	pest or weed control at 250 g/ha [15]: 0%
O=C1NC[C@H](c2cccc3c2OC(F)(F)O3)[C@H]1C(=O)Nc1ccccc1F [Compound 754]	0	0	0	0	70	90	0	0	0	0	80	100	0	0	0	0	0	0	0	40	pest or weed control at 250 g/ha [15]: 0%
